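Test compounds were applied to cells in 96-well plates for 48 hours at 5 doses. TGI marks complete inhibition of growth.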 A value given as a limit tells only on which side of the number the result lay.

The test system of the first assay is ACHN renal. The experiment in a line: growth of human tumour cells (NCI), 48 h.
In the case of `Cc1cn(C2CC(O)C(CO)O2)c(=O)[nH]c1=O` (stereo not given), the TGI was > 5000 µM.
Take `CC(=N/N=C/c1ccccn1)/C(C)=N/N=C(C)/C(C)=N/N=C(C)/C(C)=N/N=C(C)/C(C)=N\N=C\c1ccccn1`: the TGI was > 100 µM.
The compound `C=CCSc1nnc2cc(CN3CCCC3)c(-c3ccc(Cl)cc3)nn12` returned a TGI of 38.3 µM.
Take `CCOC(=O)c1cn2c(nc1=O)N[C@H]1CCCC[C@@H]12`: the TGI was > 100 µM.
Consider `CN(C)c1ccc(C(=N/N=C2\C(=O)Nc3ccccc32)c2ccc(N(C)C)cc2)cc1`, for which the TGI came to 40.8 µM.
Turning to `O=C(CC(C(=O)c1ccsc1)c1ccc2c(c1)OCO2)c1ccccc1` (stereo not given), the TGI was > 100 µM.
Take `CC1(C)CCCC2OC2CCC(C)(C)C1=O` (stereo not given): the TGI is > 100 µM.
With `CCC1(CC)C(=O)NN(C(=O)c2ccccc2)C1=O`, the TGI was > 100 µM.
In the case of `CCOC(=O)C1=C(C)C2C=C(c3cccs3)CC(c3ccc(Cl)cc3)=C2OC1=O` (stereo not given), the TGI was > 100 µM.
As to `COc1cc(/C=C/C(=O)CC(=O)/C=C/c2ccc(OC(=O)CCCCC3CCSS3)c(OC)c2)ccc1OC(=O)CCCCC1CCSS1` (stereo not given), the TGI is > 100 µM.
Same read-out and setting: under `[O-][n+]1ccccc1Sc1nc(Sc2cccc[n+]2[O-])nc(Sc2cccc[n+]2[O-])n1` stands 4.06 µM.
Still for that read-out and setting: under `CCCCC(C(=O)NCCNC(=O)CCC(=O)N(C)O)C(=O)NCCNC(=O)CCC(=O)N(C)O` stands > 100 µM.
Turning to `CSc1nsc(-c2ccccc2)[s+]1`, the TGI was > 100 µM.

In another assay the test system is DMS 273 small cell lung. The experiment in a line: growth of human tumour cells (NCI), 48 h.
For the compound `Cc1cn(C2CC(O)C(CO)O2)c(=O)[nH]c1=O` (stereo not given), the TGI is > 5000 µM.
On the same count and under the same terms, the result for `CSc1nsc(-c2ccccc2)[s+]1` reads > 100 µM.

The test system of another assay is DU-145 prostate. Description: growth of human tumour cells (NCI), 48 h.
On to `Cc1cn(C2CC(O)C(CO)O2)c(=O)[nH]c1=O` (stereo not given), for which the TGI was > 5000 µM.
On the same count and under the same terms, the result for `CC(=N/N=C/c1ccccn1)/C(C)=N/N=C(C)/C(C)=N/N=C(C)/C(C)=N/N=C(C)/C(C)=N\N=C\c1ccccn1` reads > 100 µM.
`C=CCSc1nnc2cc(CN3CCCC3)c(-c3ccc(Cl)cc3)nn12` returned a TGI of 43.7 µM.
For `CCOC(=O)c1cn2c(nc1=O)N[C@H]1CCCC[C@@H]12`, the TGI is > 100 µM.
Compound `CN(C)c1ccc(C(=N/N=C2\C(=O)Nc3ccccc32)c2ccc(N(C)C)cc2)cc1` displayed a TGI of 17.5 µM.
Still for that read-out and setting: the result for `O=C(CC(C(=O)c1ccsc1)c1ccc2c(c1)OCO2)c1ccccc1` (stereo not given) reads > 100 µM; that for `CC1(C)CCCC2OC2CCC(C)(C)C1=O` (stereo not given), > 100 µM; that for `CCC1(CC)C(=O)NN(C(=O)c2ccccc2)C1=O`, > 100 µM.
As for `CCOC(=O)C1=C(C)C2C=C(c3cccs3)CC(c3ccc(Cl)cc3)=C2OC1=O` (stereo not given), the TGI is > 100 µM.
On to `COc1cc(/C=C/C(=O)CC(=O)/C=C/c2ccc(OC(=O)CCCCC3CCSS3)c(OC)c2)ccc1OC(=O)CCCCC1CCSS1` (stereo not given), for which the TGI was > 100 µM.
The compound `[O-][n+]1ccccc1Sc1nc(Sc2cccc[n+]2[O-])nc(Sc2cccc[n+]2[O-])n1` gave a TGI of 10.2 µM.
On to `CCCCC(C(=O)NCCNC(=O)CCC(=O)N(C)O)C(=O)NCCNC(=O)CCC(=O)N(C)O`, for which the TGI is > 100 µM.

In another assay the test system is HOP-18 NSCLC. The experiment in a line: growth of human tumour cells (NCI), 48 h.
Take `Cc1cn(C2CC(O)C(CO)O2)c(=O)[nH]c1=O` (stereo not given): the TGI was > 5000 µM.
Take `CSc1nsc(-c2ccccc2)[s+]1`: the TGI is > 100 µM.

Another assay relates to KM20L2 colon. Description: growth of human tumour cells (NCI), 48 h.
With `Cc1cn(C2CC(O)C(CO)O2)c(=O)[nH]c1=O` (stereo not given), the TGI is > 5000 µM.
With `CSc1nsc(-c2ccccc2)[s+]1`, the TGI was > 100 µM.

Another assay relates to LOX IMVI melanoma. Description: growth of human tumour cells (NCI), 48 h.
Regarding `Cc1cn(C2CC(O)C(CO)O2)c(=O)[nH]c1=O` (stereo not given), the TGI was > 5000 µM.
As to `CC(=N/N=C/c1ccccn1)/C(C)=N/N=C(C)/C(C)=N/N=C(C)/C(C)=N/N=C(C)/C(C)=N\N=C\c1ccccn1`, the TGI was > 100 µM.
In turn, `C=CCSc1nnc2cc(CN3CCCC3)c(-c3ccc(Cl)cc3)nn12` gave a TGI of 48.1 µM.
For the compound `CCOC(=O)c1cn2c(nc1=O)N[C@H]1CCCC[C@@H]12`, the TGI was > 100 µM.
Still for that read-out and setting: the result for `CN(C)c1ccc(C(=N/N=C2\C(=O)Nc3ccccc32)c2ccc(N(C)C)cc2)cc1` reads 28.7 µM; that for `O=C(CC(C(=O)c1ccsc1)c1ccc2c(c1)OCO2)c1ccccc1` (stereo not given), > 100 µM.
Regarding `CC1(C)CCCC2OC2CCC(C)(C)C1=O` (stereo not given), the TGI is > 100 µM.
Same read-out and setting: under `CCC1(CC)C(=O)NN(C(=O)c2ccccc2)C1=O` stands > 100 µM.
On to `CCOC(=O)C1=C(C)C2C=C(c3cccs3)CC(c3ccc(Cl)cc3)=C2OC1=O` (stereo not given), for which the TGI was found to be 37.9 µM.
Regarding `COc1cc(/C=C/C(=O)CC(=O)/C=C/c2ccc(OC(=O)CCCCC3CCSS3)c(OC)c2)ccc1OC(=O)CCCCC1CCSS1` (stereo not given), the TGI is > 100 µM.
Same read-out and setting: under `[O-][n+]1ccccc1Sc1nc(Sc2cccc[n+]2[O-])nc(Sc2cccc[n+]2[O-])n1` stands 4 µM; under `CCCCC(C(=O)NCCNC(=O)CCC(=O)N(C)O)C(=O)NCCNC(=O)CCC(=O)N(C)O`, > 100 µM.

The test system of a further assay is M14 melanoma. The experiment in a line: growth of human tumour cells (NCI), 48 h.
Regarding `Cc1cn(C2CC(O)C(CO)O2)c(=O)[nH]c1=O` (stereo not given), the TGI is > 5000 µM.
For `CC(=N/N=C/c1ccccn1)/C(C)=N/N=C(C)/C(C)=N/N=C(C)/C(C)=N/N=C(C)/C(C)=N\N=C\c1ccccn1`, the TGI is > 100 µM.
In the case of `C=CCSc1nnc2cc(CN3CCCC3)c(-c3ccc(Cl)cc3)nn12`, the TGI turned out to be 34.7 µM.
For the compound `CCOC(=O)c1cn2c(nc1=O)N[C@H]1CCCC[C@@H]12`, the TGI is > 100 µM.
For `CN(C)c1ccc(C(=N/N=C2\C(=O)Nc3ccccc32)c2ccc(N(C)C)cc2)cc1`, the TGI was 14.4 µM.
As to `O=C(CC(C(=O)c1ccsc1)c1ccc2c(c1)OCO2)c1ccccc1` (stereo not given), the TGI is > 100 µM.
Same read-out and setting: the result for `CC1(C)CCCC2OC2CCC(C)(C)C1=O` (stereo not given) reads > 100 µM; that for `CCC1(CC)C(=O)NN(C(=O)c2ccccc2)C1=O`, > 100 µM.
Take `CCOC(=O)C1=C(C)C2C=C(c3cccs3)CC(c3ccc(Cl)cc3)=C2OC1=O` (stereo not given): the TGI is > 100 µM.
With `COc1cc(/C=C/C(=O)CC(=O)/C=C/c2ccc(OC(=O)CCCCC3CCSS3)c(OC)c2)ccc1OC(=O)CCCCC1CCSS1` (stereo not given), the TGI was > 100 µM.
`[O-][n+]1ccccc1Sc1nc(Sc2cccc[n+]2[O-])nc(Sc2cccc[n+]2[O-])n1` returned a TGI of 3.06 µM.
`CCCCC(C(=O)NCCNC(=O)CCC(=O)N(C)O)C(=O)NCCNC(=O)CCC(=O)N(C)O`: the TGI is > 100 µM.

Values taken from PubChem BioAssay (NCI).
